Measurements taken from patent US9315517B2, “Imidazol-piperidinyl derivatives as modulators of kinase activity” (Merck Patent GmbH, priority 2012, dated 2016).

How the values were obtained:
[1] = biological target: T1, P70S6K (T412E mutant, Millipore) (Homo sapiens, UniProt P23443, T412E); assay: P70S6K enzyme assay; type: biochemical; conditions: enzyme inhibition; 24 μM ATP, 90 min at 25° C., Caliper mobility shift
T1 construct: purchased Millipore
Method: (§1) The IC50 values reported for the compounds in the Experimental section were derived from the following protocol for the p70S6K and AKT enzyme assays.
P70S6K inhibitor compounds were diluted and plated in 96 well plates. A reaction mixture including the following components was then added to the compound plate to initiate the enzyme reaction; P70S6K (3 nM, T412E mutant, Millipore) was mixed with 24 μM ATP in an assay buffer containing 100 mM Hepes (pH 7.5), 5 mM MgCl2, 1 mM DTT, 0.015% Brij and 1 μM of the substrate peptide FITC-AHA-AKRRRLSSLRA-OH (derived from the S6 ribosomal protein sequence, FITC=fluorescein isothiocyanate, AHA=6-aminohexanoic acid). The reaction was incubated for 90 min at 25° C., before the addition of 10 mM EDTA to stop the reaction. The proportion of substrate and product (phosphorylated) peptide was analysed on a Caliper Life Sciences Lab Chip 3000, using a pressure of −1.4 psi, and upstream and downstream voltages of −3000 and −700 respectively. Product peaks were resolved before substrate peaks on the resulting chromatograms.

His-AKT (Full Length) = biological target: T2, His-AKT (Full Length) (Homo sapiens, UniProt P31749); assay: AKT enzyme assay; type: biochemical; conditions: enzyme inhibition; 160 uM ATP, 90 min at 25° C., Caliper mobility shift
T2 construct: 0.1 ng/μl His-AKT (Full Length); His; purchased Invitrogen P2999
Method: as §1
A TTP Mosquito liquid handling instrument was used to place 125 nl of the appropriate concentration of inhibitor in 100% DMSO (for a dose response curve calculation) into each well of a 384-well plate. To this reaction components were added to a final volume of 12.5 μl: • 0.1 ng/μl His-AKT (Full Length), (Invitrogen, Part # P2999, Lot # 641228C). • 160 uM ATP (Fluke, 02055) • 1 mM DTT (Sigma, D0632) • 1 mM MgCl2 (Sigma, M1028) • 1 μM substrate peptide (sequence FITC-AHA-GRPRTSSFAEG-NH2), synthesized by Tufts Peptide Synthesis service. • 100 mM HEPES pH 7.5 (Calbiochem, 391338) • 0.015% Brij-35 (Sigma, B4184)
The reaction was incubated for 90 min at 25° C., and then stopped by the addition of 70 μl of Stop buffer (100 mM HEPES pH 7.5, 0.015% Brij-35, 10 mM EDTA (Sigma, E7889)).
The plate was read on a Caliper LC 3000 in an Off-Chip mobility shift assay format, using the following parameters for a 12-sipper chip: screening pressure −2.3 psi, upstream voltage −500, and downstream voltage −3000. These conditions caused unphosphorylated substrate and phosphorylated product peptide to resolve as separate peaks allowing direct measurement of percentage of conversion of substrate to product. The percent conversion was plotted against concentration of inhibitor to produce a sigmoidal dose response curve, from which an IC50 was calculated.

T1 sequence (P23443 whole entry T412E): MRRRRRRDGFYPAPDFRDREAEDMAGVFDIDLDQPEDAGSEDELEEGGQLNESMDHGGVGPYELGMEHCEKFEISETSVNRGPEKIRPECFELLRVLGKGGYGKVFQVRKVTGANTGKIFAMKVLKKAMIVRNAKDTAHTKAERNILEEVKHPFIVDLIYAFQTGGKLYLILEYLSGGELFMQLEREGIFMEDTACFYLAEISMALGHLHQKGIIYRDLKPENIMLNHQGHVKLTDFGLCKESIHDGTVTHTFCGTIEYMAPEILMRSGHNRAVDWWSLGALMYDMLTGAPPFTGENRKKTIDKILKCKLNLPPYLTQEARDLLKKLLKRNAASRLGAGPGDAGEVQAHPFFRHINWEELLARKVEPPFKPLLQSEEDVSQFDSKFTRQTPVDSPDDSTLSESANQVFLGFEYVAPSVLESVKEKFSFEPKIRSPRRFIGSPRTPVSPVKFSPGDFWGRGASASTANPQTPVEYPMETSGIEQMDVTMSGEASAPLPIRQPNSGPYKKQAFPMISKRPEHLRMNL
T2 sequence (P31749 whole entry): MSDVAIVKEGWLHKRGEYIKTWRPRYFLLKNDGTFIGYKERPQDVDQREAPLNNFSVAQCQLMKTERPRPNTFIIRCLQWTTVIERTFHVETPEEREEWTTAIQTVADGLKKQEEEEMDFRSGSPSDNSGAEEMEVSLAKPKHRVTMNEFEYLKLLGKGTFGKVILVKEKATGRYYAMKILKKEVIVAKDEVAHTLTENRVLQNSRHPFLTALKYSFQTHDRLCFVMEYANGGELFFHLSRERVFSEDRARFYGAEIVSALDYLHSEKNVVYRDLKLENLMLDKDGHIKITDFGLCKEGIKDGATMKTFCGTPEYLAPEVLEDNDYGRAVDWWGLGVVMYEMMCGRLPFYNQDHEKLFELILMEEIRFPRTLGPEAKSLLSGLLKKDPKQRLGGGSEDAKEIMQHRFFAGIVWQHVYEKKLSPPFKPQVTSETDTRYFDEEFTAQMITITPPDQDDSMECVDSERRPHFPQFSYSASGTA

Row | SMILES | IC50 [1] [nM] | IC50 (His-AKT (Full Length)) [nM]
1 | Fc1ccc(-c2cn(CCN3CCC3)c(C3CCN(c4ncnc5c4OCCN5)CC3)n2)cc1C(F)(F)F [Compound A1, 4-(4-(1-(2-(azetidin-1-yl)ethyl)-4-(4-fluoro-3-(trifluoromethyl)phenyl)-1H-imidazol-2-yl)piperidin-1-yl)-7,8-dihydro-6H-pyrimido[5,4-b][1,4]oxazine] | < 25 | < 25
2 | FC(F)(F)c1cc(-c2cn(CCN3CCC3)c(C3CCN(c4ncnc5c4OCCN5)CC3)n2)ccn1 [Compound A2, 4-(4-(1-(2-(azetidin-1-yl)ethyl)-4-(2-(trifluoromethyl)pyridin-4-yl)-1H-imidazol-2-yl)piperidin-1-yl)-7,8-dihydro-6H-pyrimido[5,4-b][1,4]oxazine] | < 25 | 26 to 100
3 | CN(C)CCn1cc(-c2ccc(F)c(C(F)(F)F)c2)nc1C1CCN(c2ncnc3c2CCN3)CC1 [Compound A3, 2-(2-(1-(6,7-dihydro-5H-pyrrolo[2,3-d]pyrimidin-4-yl)piperidin-4-yl)-4-(4-fluoro-3-(trifluoromethyl)phenyl)-1H-imidazol-1-yl)-N,N-dimethylethanamine] | < 25 | < 25
4 | CN(C)CCn1cc(-c2ccc(F)c(C(F)(F)F)c2)nc1C1CCN(c2ccnc3c2CCCN3)CC1 [Compound A5, 2-(4-(4-fluoro-3-(trifluoromethyl)phenyl)-2-(1-(5,6,7,8-tetrahydro-1,8-naphthyridin-4-yl)piperidin-4-yl)-1H-imidazol-1-yl)-N,N-dimethylethanamine] | < 25 | 26 to 100
5 | CN(C)CCn1cc(-c2ccc(F)c(C(F)(F)F)c2)nc1C1CCN(c2ncnc3c2OCCN3)CC1 [Compound A6, {2-[2-[1-(7,8-Dihydro-6H-pyrimido[5,4-b][1,4]oxazin-4-yl)-piperidin-4-yl]-4-(4-fluoro-3-trifluoromethyl-phenyl)-imidazol-1-yl]-ethyl}-dimethylamine] | < 25 | < 25
6 | Cc1cc(-c2cn(CCN(C)C)c(C3CCN(c4ncnc5c4OCCN5)CC3)n2)ccc1F [Compound A7, {2-[2-[1-(7,8-Dihydro-6H-pyrimido[5,4-b][1,4]oxazin-4-yl)-piperidin-4-yl]-4-(4-fluoro-3-methyl-phenyl)-imidazol-1-yl]-ethyl}-dimethylamine] | < 25 | 26 to 100
7 | COc1cc(-c2cn(CCN(C)C)c(C3CCN(c4ncnc5c4OCCN5)CC3)n2)ccc1F [Compound A8, {2-[2-[1-(7,8-Dihydro-6H-pyrimido[5,4-b][1,4]oxazin-4-yl)-piperidin-4-yl]-4-(4-fluoro-3-methoxy-phenyl)-imidazol-1-yl]-ethyl}-dimethylamine] | < 25 | < 25
8 | CN(C)CCn1cc(-c2ccc(F)c(Cl)c2)nc1C1CCN(c2ncnc3c2OCCN3)CC1 [Compound A9, (2-{4-(3-Chloro-4-fluoro-phenyl)-2-[1-(7,8-dihydro-6H-pyrimido[5,4-b][1,4]oxazin-4-yl)-piperidin-4-yl]-imidazol-1-yl}-ethyl)-dimethylamine] | < 25 | < 25
9 | CN(C)CCn1cc(-c2ccnc(C(F)(F)F)c2)nc1C1CCN(c2ncnc3c2OCCN3)CC1 [Compound A10, {2-[2-[1-(7,8-Dihydro-6H-pyrimido[5,4-b][1,4]oxazin-4-yl)-piperidin-4-yl]-4-(2-trifluoromethyl-pyridin-4-yl)-imidazol-1-yl]-ethyl}-dimethylamine] | < 25 | 26 to 100
10 | Cc1cc(-c2cn(CCN3CCC3)c(C3CCN(c4ncnc5c4OCCN5)CC3)n2)ccc1F [Compound A11, 4-{4-[1-(2-Azetidin-1-yl-ethyl)-4-(4-fluoro-3-methyl-phenyl)-1H-imidazol-2-yl]-piperidin-1-yl}-7,8-dihydro-6H-pyrimido[5,4-b][1,4]oxazine] | < 25 | < 25
11 | Fc1ccc(-c2cn(CCN3CCC3)c(C3CCN(c4ncnc5c4OCCN5)CC3)n2)cc1Cl [Compound A13, 4-{4-[1-(2-Azetidin-1-yl-ethyl)-4-(3-chloro-4-fluoro-phenyl)-1H-imidazol-2-yl]-piperidin-1-yl}-7,8-dihydro-6H-pyrimido[5,4-b][1,4]oxazine] | < 25 | < 25
12 | CN(C)CCn1cc(-c2ccc(F)c(C(F)(F)F)c2)nc1C1CCN(c2ncnc3c2CCC3)CC1 [Compound A14, {2-[2-[1-(6,7-Dihydro-5H-cyclopentapyrimidin-4-yl)-piperidin-4-yl]-4-(4-fluoro-3-trifluoromethyl-phenyl)-imidazol-1-yl]-ethyl}-dimethylamine] | < 25 | 26 to 100
13 | Cc1cc(-c2cn(CCN(C)C)c(C3CCN(c4ncnc5c4CCC5)CC3)n2)ccc1F [Compound A15, {2-[2-[1-(6,7-Dihydro-5H-cyclopentapyrimidin-4-yl)-piperidin-4-yl]-4-(4-fluoro-3-methyl-phenyl)-imidazol-1-yl]-ethyl}-dimethylamine] | < 25 | 101 to 500
14 | COc1cc(-c2cn(CCN(C)C)c(C3CCN(c4ncnc5c4CCC5)CC3)n2)ccc1F [Compound A16, {2-[2-[1-(6,7-Dihydro-5H-cyclopentapyrimidin-4-yl)-piperidin-4-yl]-4-(4-fluoro-3-methoxy-phenyl)-imidazol-1-yl]-ethyl}-dimethylamine] | < 25 | 26 to 100
15 | CN(C)CCn1cc(-c2ccc(F)c(Cl)c2)nc1C1CCN(c2ncnc3c2CCC3)CC1 [Compound A17, (2-{4-(3-Chloro-4-fluoro-phenyl)-2-[1-(6,7-dihydro-5H-cyclopentapyrimidin-4-yl)-piperidin-4-yl]-imidazol-1-yl}-ethyl)-dimethylamine] | < 25 | 26 to 100
16 | CN(C)CCn1cc(-c2ccnc(C(F)(F)F)c2)nc1C1CCN(c2ncnc3c2CCC3)CC1 [Compound A18, {2-[2-[1-(6,7-Dihydro-5H-cyclopentapyrimidin-4-yl)-piperidin-4-yl]-4-(2-trifluoromethyl-pyridin-4-yl)-imidazol-1-yl]-ethyl}-dimethylamine] | 26 to 100 | 101 to 500
17 | Fc1ccc(-c2cn(CCN3CCC3)c(C3CCN(c4ncnc5c4CCC5)CC3)n2)cc1Cl [Compound A19, 4-{4-[1-(2-Azetidin-1-yl-ethyl)-4-(3-chloro-4-fluoro-phenyl)-1H-imidazol-2-yl]-piperidin-1-yl}-6,7-dihydro-5H-cyclopentapyrimidine] | < 25 | < 25
18 | Fc1ccc(-c2cn(CCN3CCC3)c(C3CCN(c4ncnc5c4CCC5)CC3)n2)cc1C(F)(F)F [Compound A20, 4-{4-[1-(2-Azetidin-1-yl-ethyl)-4-(4-fluoro-3-trifluoromethyl-phenyl)-1H-imidazol-2-yl]-piperidin-1-yl}-6,7-dihydro-5H-cyclopentapyrimidine] | < 25 | < 25
19 | Cc1cc(-c2cn(CCN3CCC3)c(C3CCN(c4ncnc5c4CCC5)CC3)n2)ccc1F [Compound A21, 4-{4-[1-(2-Azetidin-1-yl-ethyl)-4-(4-fluoro-3-methyl-phenyl)-1H-imidazol-2-yl]-piperidin-1-yl}-6,7-dihydro-5H-cyclopentapyrimidine] | < 25 | < 25
20 | COc1cc(-c2cn(CCN3CCC3)c(C3CCN(c4ncnc5c4CCC5)CC3)n2)ccc1F [Compound A22, 4-{4-[1-(2-Azetidin-1-yl-ethyl)-4-(4-fluoro-3-methoxy-phenyl)-1H-imidazol-2-yl]-piperidin-1-yl}-6,7-dihydro-5H-cyclopentapyrimidine] | < 25 | < 25
